Results from PubChem BioAssay (NCI).
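Where inhibition never reached the appropriate level, the endpoint shown equals the highest concentration tested. Otherwise, values were interpolated linearly from a five-concentration, 48-hour dose response in 96-well plates. Abbreviation: GI50, concentration required for 50% inhibition of growth. Definition used: TGI = concentration required for complete inhibition of growth.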

Experiments:
Experiment in all cases: growth of human tumour cells (NCI), 48 h
[1] = system: SF-295 CNS
[2] = system: A498 renal
[3] = system: MCF7 breast
[4] = system: M14 melanoma
[5] = system: CCRF-CEM leukemia
[6] = system: SR leukemia
[7] = system: HT29 colon
[8] = system: COLO 205 colon
[9] = system: SN12C renal
[10] = system: 786-0 renal
[11] = system: DU-145 prostate
[12] = system: OVCAR-4 ovarian
[13] = system: RPMI-8226 leukemia
[14] = system: HOP-92 NSCLC
[15] = system: UO-31 renal
[16] = system: OVCAR-3 ovarian
[17] = system: SK-OV-3 ovarian
[18] = system: NCI-H460 lung
[19] = system: OVCAR-5 ovarian
[20] = system: HCC-2998 colon
[21] = system: HOP-62 NSCLC
[22] = system: SK-MEL-5 melanoma
[23] = system: IGROV1 ovarian
[24] = system: A549 NSCLC
[25] = system: HCT-116 colon
[26] = system: SNB-75 CNS
[27] = system: NCI-H23 lung
[28] = system: SF-268 CNS
[29] = system: NCI/ADR-RES ovarian
[30] = system: MALME-3M melanoma
[31] = system: PC-3 prostate
[32] = system: SW-620 colon
[33] = system: UACC-257 melanoma
[34] = system: U251 CNS
[35] = system: SK-MEL-2 melanoma
[36] = system: MOLT-4 leukemia
[37] = system: HCT-15 colon
[38] = system: SF-539 CNS
[39] = system: TK-10 renal
[40] = system: NCI-H226 lung
[41] = system: NCI-H522 lung
[42] = system: RXF 393 renal
[43] = system: SK-MEL-28 melanoma
[44] = system: MDA-MB-435
[45] = system: OVCAR-8 ovarian
[46] = system: ACHN renal
[47] = system: T-47D breast
[48] = system: LOX IMVI melanoma
[49] = system: EKVX NSCLC
[50] = system: HS 578T breast
[51] = system: MDA-MB-231 breast
[52] = system: UACC-62 melanoma
[53] = system: K-562 leukemia
[54] = system: BT-549 breast
[55] = system: HL-60(TB) leukemia
[56] = system: SNB-19 CNS
[57] = system: KM12 colon

**Q.** What does the source list for Cc1cc(N2CCOCC2)nc(N(CCCNc2ccnc3cc(Cl)ccc23)Cc2ccco2)n1?
**A.** GI50 [1]: 1.67 µM; TGI [1]: 6.23 µM; GI50 [2]: 2.2 µM; TGI [2]: 6.04 µM; GI50 [3]: 2.42 µM; TGI [3]: 12.9 µM; GI50 [4]: 1.86 µM; TGI [4]: 4.22 µM; GI50 [5]: 2.67 µM; TGI [5]: 18.3 µM; GI50 [6]: 1.42 µM; TGI [6]: 5.28 µM; GI50 [7]: 1.83 µM; TGI [7]: 8.57 µM; GI50 [8]: 1.71 µM; TGI [8]: 3.72 µM; GI50 [9]: 3.35 µM; TGI [9]: 14.6 µM; GI50 [10]: 1.58 µM; TGI [10]: 3.17 µM; GI50 [11]: 3.23 µM; TGI [11]: 14.2 µM; GI50 [12]: 3.07 µM; TGI [12]: 15.2 µM; GI50 [13]: 2.13 µM; TGI [13]: 6.33 µM; GI50 [14]: 1.56 µM; TGI [14]: 7.77 µM; GI50 [15]: 1.61 µM; TGI [15]: 6.77 µM; GI50 [16]: 1.81 µM; TGI [16]: 4.49 µM; GI50 [17]: 2.84 µM; TGI [17]: 10.7 µM; GI50 [18]: 3.28 µM; TGI [18]: 13.7 µM; GI50 [19]: 4.23 µM; TGI [19]: 19.3 µM; GI50 [20]: 2.97 µM; TGI [20]: 8.18 µM; GI50 [21]: 1.73 µM; TGI [21]: 6 µM; GI50 [22]: 1.82 µM; TGI [22]: 3.65 µM; GI50 [23]: 2.18 µM; TGI [23]: 11.3 µM; GI50 [24]: 3.77 µM; TGI [24]: 13.6 µM; GI50 [25]: 2.2 µM; TGI [25]: 10.5 µM; GI50 [26]: 2.29 µM; TGI [26]: 9.78 µM; GI50 [27]: 2.76 µM; TGI [27]: 12.7 µM; GI50 [28]: 3.43 µM; TGI [28]: 16.1 µM; GI50 [29]: 1.95 µM; TGI [29]: 6.66 µM; GI50 [30]: 2.47 µM; TGI [30]: 5.69 µM; GI50 [31]: 3.03 µM; TGI [31]: 12.9 µM; GI50 [32]: 2.73 µM; TGI [32]: 11.5 µM; GI50 [33]: 2.73 µM; TGI [33]: 7.33 µM; GI50 [34]: 3.15 µM; TGI [34]: 10.6 µM; GI50 [35]: 2.52 µM; TGI [35]: 6.79 µM; GI50 [36]: 3.02 µM; TGI [36]: 13.1 µM; GI50 [37]: 2.37 µM; TGI [37]: 11.6 µM; GI50 [38]: 1.95 µM; TGI [38]: 4.02 µM; GI50 [39]: 3.3 µM; TGI [39]: 12.3 µM; GI50 [40]: 12 µM; TGI [40]: 33.9 µM; GI50 [41]: 2.69 µM; TGI [41]: 10.9 µM; GI50 [42]: 1.69 µM; TGI [42]: 4.43 µM; GI50 [43]: 2.29 µM; TGI [43]: 6.66 µM; GI50 [44]: 0.858 µM; TGI [44]: 6.41 µM; GI50 [45]: 3.15 µM; TGI [45]: 12.1 µM; GI50 [46]: 4.09 µM; TGI [46]: 15.8 µM; GI50 [47]: 2.06 µM; TGI [47]: 7.26 µM; GI50 [48]: 1.58 µM; TGI [48]: 3.81 µM; GI50 [49]: 3.73 µM; TGI [49]: 16.7 µM; GI50 [50]: 4.03 µM; TGI [50]: 25.7 µM; GI50 [51]: 3.2 µM; TGI [51]: 13.4 µM; GI50 [52]: 3.49 µM; TGI [52]: 12.5 µM; GI50 [53]: 1.33 µM; TGI [53]: 11.7 µM; GI50 [54]: 2.3 µM; TGI [54]: 7.95 µM; GI50 [55]: 1.87 µM; TGI [55]: 4.55 µM; GI50 [56]: 3.81 µM; TGI [56]: 15.4 µM; GI50 [57]: 2.7 µM; TGI [57]: 12.8 µM
